These are literature values, as cited in US20140271704A1, “METHODS OF PRODUCING NUTRITIONAL SUPPLEMENTS USING MUSHROOMS FROM THE SPECIES Poria cocos OR Flammulina velutipes” (JARROW FORMULAS, INC., priority 2013, published 2014).

One data set deals with homocysteine. The settings on record: human; compared with racemic mixtures of equal amounts of L- and D-isomer.
For data set [1] the following is noted: oral, animal.

With `CN1c2c(nc(N)[nH]c2=O)NCC1CNc1ccc(C(=O)N[C@@H](CCC(=O)O)C(=O)O)cc1` (single isomer, unassigned) [L-isomer of 5-MTHF, 5-methyltetrahydrofolate], the “reduction of homocysteine versus racemic mixture” value with homocysteine is recorded as “superior to racemic mixtures”. With `CN1c2c(nc(N)[nH]c2=O)NCC1CNc1ccc(C(=O)N[C@@H](CCC(=O)O)C(=O)O)cc1` (some centres unmarked) [5-MTHF, 5-methyltetrahydrofolate], in data set [1], the “absorption from the intestinal tract” value was “readily absorbed from the intestinal tract without degradation”.
